# Values of other authors, collected in patent US12629364B2, “Methods of treating cancers overexpressing CARM1 with EZH2 inhibitors and platinum-based antineoplastic drugs” (The Wistar Institute of Anatomy and Biology, priority 2016, dated 2026).
# Entries after “also recorded” stand apart in the source; their conditions may differ.
# Settings: clinical trials for hematopoietic malignancies; cited from earlier work
compound,measurement,value
"CC[C@H](C)n1cc(C)c2c(C(=O)NCc3c(C)cc(C)[nH]c3=O)cc(-c3ccc(N4CCNCC4)nc3)cc21 [GSK126, (S)-1-(sec-butyl)-N-((4,6-dimethyl-2-oxo-1,2-dihydropyridin-3-yl)methyl)-3-methyl-6-(6-(piperazin-1-yl)pyridin-3-yl)-1H-indole-4-carboxamide]",tolerability in clinical trials,used safely in clinical trials; also recorded: well-tolerated with limited toxicity
